From PubChem BioAssay (NCI)
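Tested at 5 concentrations; 48 h exposure; 96-well plates; endpoints linearly interpolated, else capped at highest concentration. The concentration for 50% growth inhibition is given as GI50. At the TGI there is no net growth.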

How the values were obtained:
Test in all cases: growth of human tumour cells (NCI), 48 h
[1] = system: SN12C renal
[2] = system: TK-10 renal
[3] = system: K-562 leukemia
[4] = system: HOP-92 NSCLC
[5] = system: EKVX NSCLC
[6] = system: MOLT-4 leukemia
[7] = system: SF-295 CNS
[8] = system: SF-539 CNS
[9] = system: PC-3 prostate
[10] = system: BT-549 breast
[11] = system: HCT-116 colon
[12] = system: HCT-15 colon
[13] = system: HL-60(TB) leukemia
[14] = system: SK-MEL-2 melanoma
[15] = system: KM12 colon
[16] = system: SNB-19 CNS
[17] = system: NCI-H23 lung
[18] = system: MALME-3M melanoma
[19] = system: SK-MEL-5 melanoma
[20] = system: M14 melanoma
[21] = system: SK-OV-3 ovarian
[22] = system: T-47D breast
[23] = system: SF-268 CNS
[24] = system: RXF 393 renal
[25] = system: A498 renal
[26] = system: OVCAR-5 ovarian
[27] = system: SW-620 colon
[28] = system: SK-MEL-28 melanoma
[29] = system: UO-31 renal
[30] = system: NCI-H460 lung
[31] = system: UACC-257 melanoma
[32] = system: ACHN renal
[33] = system: CAKI-1 renal
[34] = system: HOP-62 NSCLC
[35] = system: OVCAR-3 ovarian
[36] = system: NCI-H522 lung
[37] = system: OVCAR-8 ovarian
[38] = system: NCI-H226 lung
[39] = system: 786-0 renal
[40] = system: MCF7 breast
[41] = system: RPMI-8226 leukemia
[42] = system: HS 578T breast
[43] = system: SNB-75 CNS
[44] = system: A549 NSCLC
[45] = system: UACC-62 melanoma
[46] = system: COLO 205 colon
[47] = system: U251 CNS
[48] = system: MDA-MB-231 breast
[49] = system: DU-145 prostate
[50] = system: MDA-MB-435
[51] = system: LOX IMVI melanoma
[52] = system: SR leukemia
[53] = system: NCI/ADR-RES ovarian
[54] = system: HT29 colon
[55] = system: IGROV1 ovarian
[56] = system: HCC-2998 colon
[57] = system: OVCAR-4 ovarian

Q: Which GI50 [1] does the source give for O=C(Nc1ccc(OCc2nnc(-c3ccc(Cl)cc3)o2)c(F)c1)Nc1ccc(Cl)c(C(F)(F)F)c1 here?
A: 2.02 µM

Q: What about the TGI [1] of the same compound?
A: 7.91 µM

Q: And the GI50 [2]?
A: 3.72 µM

Q: What about the TGI [2] of the same compound?
A: 17 µM

Q: And the GI50 [3]?
A: 2.94 µM

Q: What about the TGI [3] of the same compound?
A: 12.6 µM

Q: What about the GI50 [4] of the same compound?
A: 1.46 µM

Q: And the TGI [4]?
A: 3.82 µM

Q: And the GI50 [5]?
A: 2.64 µM

Q: And the TGI [5]?
A: 10.4 µM

Q: What about the GI50 [6] of the same compound?
A: 2.07 µM

Q: And the TGI [6]?
A: 7.5 µM

Q: What about the GI50 [7] of the same compound?
A: 2.26 µM

Q: And the TGI [7]?
A: 6.99 µM

Q: And the GI50 [8]?
A: 1.91 µM

Q: And the TGI [8]?
A: 4.34 µM

Q: And the GI50 [9]?
A: 1.84 µM

Q: What about the TGI [9] of the same compound?
A: 7.87 µM

Q: What about the GI50 [10] of the same compound?
A: 3.06 µM

Q: What about the TGI [10] of the same compound?
A: 11 µM

Q: What about the GI50 [11] of the same compound?
A: 1.8 µM

Q: And the TGI [11]?
A: 6.16 µM

Q: And the GI50 [12]?
A: 2.03 µM

Q: And the TGI [12]?
A: 10.9 µM

Q: What about the GI50 [13] of the same compound?
A: 2.83 µM

Q: And the TGI [13]?
A: 6.78 µM

Q: What about the GI50 [14] of the same compound?
A: 3.17 µM

Q: What about the TGI [14] of the same compound?
A: 9.48 µM

Q: What about the GI50 [15] of the same compound?
A: 1.71 µM

Q: And the TGI [15]?
A: 4.96 µM

Q: What about the GI50 [16] of the same compound?
A: 2.92 µM

Q: And the TGI [16]?
A: 18.3 µM

Q: And the GI50 [17]?
A: 2.36 µM

Q: What about the TGI [17] of the same compound?
A: 7.38 µM

Q: And the GI50 [18]?
A: 2.4 µM

Q: What about the TGI [18] of the same compound?
A: 6.33 µM

Q: What about the GI50 [19] of the same compound?
A: 2.01 µM

Q: What about the TGI [19] of the same compound?
A: 4.42 µM

Q: What about the GI50 [20] of the same compound?
A: 2.23 µM

Q: What about the TGI [20] of the same compound?
A: 11.7 µM

Q: And the GI50 [21]?
A: 3.3 µM

Q: What about the TGI [21] of the same compound?
A: 12.5 µM

Q: And the GI50 [22]?
A: 2.21 µM

Q: What about the TGI [22] of the same compound?
A: 8.66 µM

Q: And the GI50 [23]?
A: 3.33 µM

Q: And the TGI [23]?
A: 12.5 µM

Q: What about the GI50 [24] of the same compound?
A: 2.6 µM

Q: What about the TGI [24] of the same compound?
A: 7.76 µM

Q: And the GI50 [25]?
A: 1.18 µM

Q: And the TGI [25]?
A: 7.43 µM

Q: And the GI50 [26]?
A: 3.66 µM

Q: What about the TGI [26] of the same compound?
A: 17.6 µM

Q: What about the GI50 [27] of the same compound?
A: 2.9 µM

Q: And the TGI [27]?
A: 11 µM

Q: What about the GI50 [28] of the same compound?
A: 3.02 µM

Q: And the TGI [28]?
A: 13.5 µM

Q: And the GI50 [29]?
A: 1.52 µM

Q: And the TGI [29]?
A: 4.1 µM

Q: And the GI50 [30]?
A: 1.85 µM

Q: What about the TGI [30] of the same compound?
A: 4.86 µM

Q: And the GI50 [31]?
A: 2.71 µM

Q: What about the TGI [31] of the same compound?
A: 11.1 µM

Q: What about the GI50 [32] of the same compound?
A: 2.11 µM

Q: And the TGI [32]?
A: 8.52 µM

Q: And the GI50 [33]?
A: 2.97 µM

Q: What about the TGI [33] of the same compound?
A: 12.2 µM

Q: What about the GI50 [34] of the same compound?
A: 0.793 µM

Q: What about the TGI [34] of the same compound?
A: 5.84 µM

Q: And the GI50 [35]?
A: 1.7 µM

Q: And the TGI [35]?
A: 5.01 µM

Q: And the GI50 [36]?
A: 2.27 µM

Q: What about the TGI [36] of the same compound?
A: 7.04 µM

Q: What about the GI50 [37] of the same compound?
A: 2.97 µM

Q: And the TGI [37]?
A: 12.1 µM

Q: What about the GI50 [38] of the same compound?
A: 2.84 µM

Q: What about the TGI [38] of the same compound?
A: 13.2 µM

Q: What about the GI50 [39] of the same compound?
A: 2.05 µM

Q: And the TGI [39]?
A: 5.1 µM

Q: And the GI50 [40]?
A: 1.92 µM

Q: And the TGI [40]?
A: 7.7 µM

Q: What about the GI50 [41] of the same compound?
A: 1.82 µM

Q: And the TGI [41]?
A: 8.09 µM

Q: What about the GI50 [42] of the same compound?
A: 2.13 µM

Q: What about the TGI [42] of the same compound?
A: 7.96 µM

Q: And the GI50 [43]?
A: 1.44 µM

Q: And the TGI [43]?
A: 6.29 µM

Q: And the GI50 [44]?
A: 2.65 µM

Q: And the TGI [44]?
A: 11.7 µM

Q: And the GI50 [45]?
A: 1.54 µM

Q: And the TGI [45]?
A: 4.21 µM

Q: And the GI50 [46]?
A: 1.73 µM

Q: What about the TGI [46] of the same compound?
A: 3.5 µM

Q: And the GI50 [47]?
A: 1.88 µM

Q: And the TGI [47]?
A: 5.03 µM

Q: And the GI50 [48]?
A: 2.35 µM

Q: What about the TGI [48] of the same compound?
A: 7.64 µM

Q: And the GI50 [49]?
A: 2.48 µM

Q: And the TGI [49]?
A: 6.78 µM

Q: What about the GI50 [50] of the same compound?
A: 2.62 µM

Q: And the TGI [50]?
A: 11.6 µM

Q: And the GI50 [51]?
A: 2.23 µM

Q: What about the TGI [51] of the same compound?
A: 6.66 µM

Q: What about the GI50 [52] of the same compound?
A: 1.85 µM

Q: What about the TGI [52] of the same compound?
A: 4.9 µM

Q: What about the GI50 [53] of the same compound?
A: 2.59 µM

Q: What about the TGI [53] of the same compound?
A: 11.5 µM

Q: And the GI50 [54]?
A: 2.29 µM

Q: And the TGI [54]?
A: 5.69 µM

Q: What about the GI50 [55] of the same compound?
A: 2.9 µM

Q: What about the TGI [55] of the same compound?
A: 10.5 µM

Q: What about the GI50 [56] of the same compound?
A: 3.01 µM

Q: What about the TGI [56] of the same compound?
A: 7.98 µM

Q: What about the GI50 [57] of the same compound?
A: 2.02 µM

Q: What about the TGI [57] of the same compound?
A: 7.59 µM
